Earlier results on four compounds are cited in patent US7749547B2, “Nutritional composition and method for increasing creatine uptake and retention in skeletal muscle, increasing muscle mass and strength, increasing exercise capacity and for aiding recovery following exercise” (priority 2006, dated 2010).

For series [1] the following is noted: healthy volunteers.
The conditions of series [2]: supplemented rats.
The conditions of series [3]: rodents; reduced food intake, enhanced energy expenditure.
The conditions of series [4]: supplementation.
Assay in series [5]: not given
This is another data set of the same source.

Turning to Isomalt, the “bowel function and metabolic function” value in series [1] was “promote healthy bowel function without impairing metabolic function”.

Turning to `O=C(O)CCCCC1CCSS1` (stereo not drawn) [ALA, Alpha Lipoic Acid], the “age-related changes in mitochondrial function, accumulated oxidative damage and metabolic rate” value in series [2] was “improved”. For the same compound, in series [3], the body weight entry is recorded as “profound weight loss”.

For `CN(CC(=O)O)C(=N)N` [Creatine, N-methyl-N-guanyl Glycine], in series [4], the “concentration of Creatine in the muscle” value was “increase the concentration of Creatine in the muscle” and the “resynthesis of Phosphocreatine” value was “increase in the resynthesis of Phosphocreatine”. Besides, the high-intensity exercise performance entry (males and females) is “improved”. The strength and fatigue result (supplemental Creatine) is “improve strength and reduce fatigue”. For the same compound, the “muscle fiber cross sectional area” value (supplementation) is listed as “increases muscle fiber cross sectional area”. Moreover, the “strength and fat-free mass” value (with resistance training, sedentary females and male football players) is “increased strength and fat-free mass over a placebo”.

On to `[Cr]` [Chromium], for which the lean mass entry in series [5] (clinical) is on record as “increase lean mass”. Further, the body fat result in series [5] (combined with exercise) was “reduce body fat”. For the same compound, in series [5] (human, in vivo), the “high density lipoproteins (HDL)” value is “increase high density lipoproteins”.
